According to US12606561B2, “Substituted pyrazolo[1,5-a][1,3,5]triazines as CDK inhibitors” (QURIENT CO., LTD., priority 2018, dated 2026):

Legend:
CDK5/p25 = target: T1, CDK5/p25 (Homo sapiens, UniProt Q00535); assay: Enzymatic assay for CDK5 (LANCE Ultra kinase assay, FRET based); format: biochemical; details: ATP at Km
T1 construct: purchased Invitrogen PR8543B
Protocol: (§1) Enzymatic Binding Assay Protocol for CDK1, CDK2, CDK5 and CDK7
(§2) Inhibition activity of the respective compound on CDK kinase under Km value of ATP was tested in FRET based The LANCE® Ultra kinase assay (Perkin Elmer), which uses a ULight™-labeled peptide substrate and an appropriate Europium-labeled anti-phospho-antibody. Test compounds were made with DMSO solutions, and then 4-fold serial dilutions for 8 doses were prepared using automated liquid handler (POD™ 810, Labcyte) and 80 nL/well of diluted compound solutions were added into the 384-well plates (Greiner, Cat #784075). And then 68 nM of ULight-MBP peptide (Perkin Elmer, Cat #TRF0109-M) and 5 ul/well of ATP (Sigma, Cat #A7699) were added to the plate. After 1 min centrifugation at 1000 rpm, purified CDKs/Cyclin complex were added with the following concentrations respectively. 24 uM for CDK1/Cyclin B (Invitrogen, Cat #PR4768C), 22 uM for CDK2/Cyclin A (Invitrogen, Cat #PV6290), 10 uM for CDK5/p25 (Invitrogen, Cat #PR8543B) and […] for CDK7/Cyclin H/MNAT1 (Invitrogen, Cat #PR6749B) were added to each corresponding plate for CDK1, CDK2, CDK5 and CDK7. Incubate at 23° C. for 60 min and then Eu-labeled anti-phospho-Myelin Basic Protein (PE, Cat #TRF0201-M) and EDTA (Invitrogen, Cat #15575038) mixture in Lance Detection Buffer (Perkin Elmer, Cat #CR97100) was added in each well. After additional incubation at 23° C. for 60 min, test articles were measured the fluorescence using Envision leader (Perkin Elmer, USA) [Laser as excitation light; […] as the first and the second emission filter]. Data were analyzed using XL Fit software.

CDK2/Cyclin A = target: T2, CDK2/Cyclin A (Homo sapiens, UniProt P24941); assay: Enzymatic assay for CDK2 (LANCE Ultra kinase assay, FRET based); format: biochemical; details: ATP at Km
T2 construct: purchased Invitrogen PV6290
Protocol: as §1, §2

CDK1/Cyclin B = target: T3, CDK1/Cyclin B (Homo sapiens, UniProt P06493); assay: Enzymatic assay for CDK1 (LANCE Ultra kinase assay, FRET based); format: biochemical; details: ATP at Km; read-out: CDK1 enzymatic activity IC50
T3 construct: purchased Invitrogen PR4768C
T3 sequence (P06493 whole entry): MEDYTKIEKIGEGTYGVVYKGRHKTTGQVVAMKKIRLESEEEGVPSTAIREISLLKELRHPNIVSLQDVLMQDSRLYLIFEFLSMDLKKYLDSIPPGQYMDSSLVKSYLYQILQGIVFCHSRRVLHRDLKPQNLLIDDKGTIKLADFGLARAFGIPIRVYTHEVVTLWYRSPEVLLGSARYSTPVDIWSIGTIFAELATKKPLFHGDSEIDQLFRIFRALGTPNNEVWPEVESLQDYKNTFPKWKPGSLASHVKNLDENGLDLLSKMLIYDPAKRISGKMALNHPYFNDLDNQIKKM
T3 sequence (P14635 whole entry partner): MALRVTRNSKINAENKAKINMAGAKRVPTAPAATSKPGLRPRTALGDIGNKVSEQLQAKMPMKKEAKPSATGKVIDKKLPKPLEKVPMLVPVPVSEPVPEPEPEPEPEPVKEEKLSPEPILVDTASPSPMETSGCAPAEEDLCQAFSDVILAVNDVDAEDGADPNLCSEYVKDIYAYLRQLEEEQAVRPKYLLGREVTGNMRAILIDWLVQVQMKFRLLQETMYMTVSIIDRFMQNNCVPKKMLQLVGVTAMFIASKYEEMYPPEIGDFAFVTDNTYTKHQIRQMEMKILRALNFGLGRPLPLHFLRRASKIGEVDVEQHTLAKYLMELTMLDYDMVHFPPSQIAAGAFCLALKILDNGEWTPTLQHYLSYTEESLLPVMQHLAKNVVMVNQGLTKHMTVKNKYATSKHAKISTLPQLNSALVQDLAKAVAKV
Protocol: as §1
(§3) Inhibition activity of the respective compound on CDK kinase under Km value of ATP was tested in FRET based The LANCE® Ultra kinase assay (Perkin Elmer), which uses a ULight™-labeled peptide substrate and an appropriate Europium-labeled anti-phospho-antibody. […] After 1 min centrifugation at 1000 rpm, purified CDKs/Cyclin complex were added with the following concentrations respectively. […] Data were analyzed using XL Fit software.

CDK7/Cyclin H/MNAT1 = target: T4, CDK7/Cyclin H/MNAT1 (Homo sapiens, UniProt P50613); assay: Enzymatic assay for CDK7 (LANCE Ultra kinase assay, FRET based); format: biochemical; details: for IC50: ATP at Km
T4 construct: purchased Invitrogen PR6749B
T4 sequence (P50613 whole entry): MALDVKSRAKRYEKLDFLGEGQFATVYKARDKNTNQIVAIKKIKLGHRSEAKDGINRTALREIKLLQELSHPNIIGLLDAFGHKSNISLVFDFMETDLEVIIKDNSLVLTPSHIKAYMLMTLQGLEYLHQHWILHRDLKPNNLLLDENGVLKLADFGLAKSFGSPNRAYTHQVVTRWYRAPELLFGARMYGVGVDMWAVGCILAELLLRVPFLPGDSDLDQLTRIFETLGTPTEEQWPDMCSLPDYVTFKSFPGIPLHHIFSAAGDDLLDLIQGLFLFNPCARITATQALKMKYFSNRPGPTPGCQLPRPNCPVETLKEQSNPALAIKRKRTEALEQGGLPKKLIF
T4 sequence (P51946 whole entry partner): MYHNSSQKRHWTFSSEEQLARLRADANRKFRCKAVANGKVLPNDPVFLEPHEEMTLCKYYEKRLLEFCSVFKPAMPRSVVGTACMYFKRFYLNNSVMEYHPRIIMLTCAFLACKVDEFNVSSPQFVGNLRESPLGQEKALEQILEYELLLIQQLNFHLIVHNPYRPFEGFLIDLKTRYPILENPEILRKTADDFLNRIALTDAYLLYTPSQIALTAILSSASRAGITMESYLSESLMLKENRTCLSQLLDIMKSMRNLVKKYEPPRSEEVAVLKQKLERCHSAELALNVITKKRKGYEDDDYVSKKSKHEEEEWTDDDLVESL
T4 sequence (P51948 whole entry partner): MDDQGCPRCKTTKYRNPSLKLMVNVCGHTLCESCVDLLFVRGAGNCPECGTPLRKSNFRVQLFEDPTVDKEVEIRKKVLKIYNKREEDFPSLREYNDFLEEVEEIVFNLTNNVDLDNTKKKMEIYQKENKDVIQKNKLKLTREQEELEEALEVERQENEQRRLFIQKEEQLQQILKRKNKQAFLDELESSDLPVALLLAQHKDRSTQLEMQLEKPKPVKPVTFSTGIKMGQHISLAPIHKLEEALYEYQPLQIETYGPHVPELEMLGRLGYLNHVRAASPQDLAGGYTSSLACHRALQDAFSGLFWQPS
Protocol: as §1, §3

A2780 = A2780 viability assay (CellTiter-Glo, 72 hours); format: cell-based; details: Homo sapiens; A2780 cells
Protocol: Human […] cell line, MV4-11_(ATCC, Cat #CRL-9591), NSCLC (Non-small cell lung cancer) cell line H460 (ATCC, Cat #HTB-177), A2780 (ECACC, Cat #93112519) and OVCAR-3(ATCC, Cat #HTB-161) were obtained from ATCC. Cells were grown in RPMI-1640 media (Invitrogen, Cat #22400-089) supplemented with 10% FBS (Invitrogen, Cat #10099141) and 1% penicillin/streptomycin (Invitrogen, Cat #15070063) and cultured at 37° C., 5% CO2 in a humidified chamber. All cell lines were routinely tested for mycoplasma.
To effect of the CDK7 inhibitor to inhibit the growth of target cancer cells, viability assay were conducted a 72 hour time period. Briefly, the candidate cell line was plated in 96 well plate at the following density of cells respectively. 1×10^4 cells/well for MV4-11, 5×10^3 for H460 and OVCAR-3, and 1×10^3 for A2780. After 24 hours, the cells were treated with various concentrations of the compound (ranging from 0.0015 uM to 10 uM). DMSO solvent without compound served as a control and final DMSO concentration lest than 0.1%. After 72 hours of incubation at 37° C., 5% CO2 incubator, cells were analyzed for the viability using the CellTiter-Glo Luminescent Cell Viability Assay (Promega, Cat #G7570). All viability assays were performed in duplicate and Luminescence was read using an Envision (Perkin Elmer, USA). Data was analyzed using XLfit software.

T1 sequence (Q00535 whole entry): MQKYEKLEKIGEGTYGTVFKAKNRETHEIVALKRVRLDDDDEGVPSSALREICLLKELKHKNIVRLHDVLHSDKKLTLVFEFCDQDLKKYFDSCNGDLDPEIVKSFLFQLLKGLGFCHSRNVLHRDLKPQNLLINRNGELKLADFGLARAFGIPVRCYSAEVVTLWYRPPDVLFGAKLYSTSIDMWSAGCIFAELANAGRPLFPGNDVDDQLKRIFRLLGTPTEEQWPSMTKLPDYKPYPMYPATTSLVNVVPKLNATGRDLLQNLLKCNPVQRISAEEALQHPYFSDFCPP
T1 sequence (Q15078 99-307 partner limits assumed): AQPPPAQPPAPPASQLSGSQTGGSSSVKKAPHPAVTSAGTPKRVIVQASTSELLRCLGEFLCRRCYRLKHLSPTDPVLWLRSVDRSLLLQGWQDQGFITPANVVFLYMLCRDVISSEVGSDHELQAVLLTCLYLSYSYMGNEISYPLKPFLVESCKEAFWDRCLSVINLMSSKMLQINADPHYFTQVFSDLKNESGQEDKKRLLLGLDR

Row | SMILES | IC50 (CDK5/p25) [nM] | IC50 (CDK2/Cyclin A) [nM] | IC50 (CDK1/Cyclin B) [nM] | IC50 (CDK7/Cyclin H/MNAT1) [nM] | CDK1/CDK7: Selectivity of CDK7 inhibition over CDK1 inhibition (CDK7/Cyclin H/MNAT1) | CDK2/CDK7: Selectivity of CDK7 inhibition over CDK2 inhibition (CDK7/Cyclin H/MNAT1) | CDK5/CDK7: Selectivity of CDK7 inhibition over CDK5 inhibition (CDK7/Cyclin H/MNAT1) | IC50 (A2780) [nM]
1 | CC(C)c1cnn2c(NCc3ccccc3-c3nccc4cc(NC(=O)/C=C/CN(C)C)ccc34)nc(S(C)(=O)=O)nc12 [Compound 202] | > 1000 | > 1000 | > 1000 | < 100 | B (B indicates 50 < [fold] ≤ 500) | B (B indicates 50 < [fold] ≤ 500) | B (B indicates 50 < [fold] ≤ 500) | < 1000
2 | C=CC(=O)N1CCc2c(ccnc2-c2ccccc2CNc2nc(OC3CCC(C)(C)NC3)nc3c(C(C)C)cnn23)C1 (centres unmarked) [Compound 203] | > 1000 | > 1000 | > 1000 | < 100 | A (A indicates [fold] > 500) | A (A indicates [fold] > 500) | A (A indicates [fold] > 500) | < 1000
3 | CC(C)c1cnn2c(NCc3ccccc3-c3nccc4cc(NC(=O)/C=C/CN(C)C)ccc34)cc(N3CCNC(C(F)(F)F)C3)nc12 (centres unmarked) [Compound 214] | > 1000 | > 1000 | > 1000 | < 100 | A (A indicates [fold] > 500) | A (A indicates [fold] > 500) | A (A indicates [fold] > 500) | < 1000
4 | C=C(C)C(=O)Nc1ccc2c(-c3ccccc3CNc3cc(C(F)(F)F)nc4c(C(C)C)cnn34)nccc2c1 [Compound 208] | > 1000 | > 1000 | > 1000 | 100 to 1000 | B (B indicates 50 < [fold] ≤ 500) | B (B indicates 50 < [fold] ≤ 500) | B (B indicates 50 < [fold] ≤ 500) | 1000 to 10000
5 | C=CC(=O)Nc1ccc2c(-c3ccccc3CNc3nc(Nc4cccnc4)nc4c(C(C)C)cnn34)nccc2c1 [Compound 188] | > 1000 | > 1000 | > 1000 | < 100 | A (A indicates [fold] > 500) | A (A indicates [fold] > 500) | A (A indicates [fold] > 500) | < 1000
6 | C=CC(=O)Nc1ccc2c(-c3ccccc3CNc3nc(-c4ccncc4)nc4c(C(C)C)cnn34)nccc2c1 [Compound 201] | > 1000 | > 1000 | > 1000 | < 100 | B (B indicates 50 < [fold] ≤ 500) | B (B indicates 50 < [fold] ≤ 500) | B (B indicates 50 < [fold] ≤ 500) | < 1000
7 | C=C(Cl)C(=O)Nc1ccc2c(-c3ccccc3CNc3nc(N[C@H]4CC[C@H](OC)CC4)nc4c(C(C)C)cnn34)nccc2c1 [Compound 209] | > 1000 | > 1000 | > 1000 | < 100 | A (A indicates [fold] > 500) | A (A indicates [fold] > 500) | A (A indicates [fold] > 500) | < 1000
8 | C=CC(=O)Nc1ccc2c(-c3ccccc3CNc3nc(NC4CCC(C)(C)NC4)nc4c(C(F)(F)F)cnn34)nccc2c1 (centres unmarked) [Compound 215] | > 1000 | > 1000 | > 1000 | < 100 | A (A indicates [fold] > 500) | A (A indicates [fold] > 500) | A (A indicates [fold] > 500) | < 1000
9 | C=CC(=O)Nc1ccc2c(-c3ccccc3CNc3nc(-c4cccnc4)nc4c(C(C)C)cnn34)nccc2c1 [Compound 200] | > 1000 | > 1000 | > 1000 | < 100 | B (B indicates 50 < [fold] ≤ 500) | B (B indicates 50 < [fold] ≤ 500) | B (B indicates 50 < [fold] ≤ 500) | < 1000
10 | C=CC(=O)Nc1ccc2c(-c3ccccc3CNc3cc(C(F)(F)F)nc4c(C(C)C)cnn34)nccc2c1 [Compound 198] | > 1000 | > 1000 | > 1000 | < 100 | B (B indicates 50 < [fold] ≤ 500) | B (B indicates 50 < [fold] ≤ 500) | B (B indicates 50 < [fold] ≤ 500) | < 1000
11 | CC(C)c1cnn2c(NCc3ccccc3-c3nccc4cc(NC(=O)/C=C/CN(C)C)ccc34)cc(C(F)(F)F)nc12 [Compound 204] | > 1000 | > 1000 | > 1000 | < 100 | A (A indicates [fold] > 500) | A (A indicates [fold] > 500) | A (A indicates [fold] > 500) | < 1000
12 | CNS(=O)(=O)C[C@H]1CC[C@H](Nc2nc(NCc3ccccc3-c3nccc4cc(NC(=O)/C=C/CN(C)C)ccc34)n3ncc(C(C)C)c3n2)CC1 [Compound 134] | > 1000 | > 1000 | > 1000 | < 100 | A (A indicates [fold] > 500) | A (A indicates [fold] > 500) | A (A indicates [fold] > 500) | –
13 | Cc1cccc(-c2ccc3cccc(NC(=O)/C=C/CN(C)C)c3n2)c1CNc1nc(NCC2CCNCC2)nc2c(C(C)C)cnn12 [Compound 138] | > 1000 | > 1000 | > 1000 | < 100 | A (A indicates [fold] > 500) | A (A indicates [fold] > 500) | A (A indicates [fold] > 500) | –
14 | CC#CC(=O)Nc1ccc2c(-c3ccccc3CNc3nc(N[C@H]4CC[C@H](OC)CC4)nc4c(C(C)C)cnn34)nccc2c1 [Compound 135] | > 1000 | > 1000 | > 1000 | 100 to 1000 | B (B indicates 50 < [fold] ≤ 500) | B (B indicates 50 < [fold] ≤ 500) | B (B indicates 50 < [fold] ≤ 500) | –
15 | C=C(F)C(=O)Nc1ccc2c(-c3ccccc3CNc3nc(N[C@H]4CC[C@H](NC)CC4)nc4c(C(C)C)cnn34)nccc2c1 [Compound 146] | > 1000 | > 1000 | > 1000 | < 100 | A (A indicates [fold] > 500) | A (A indicates [fold] > 500) | A (A indicates [fold] > 500) | –
